This is an account of results in US12157730B2, “Heteroaryl derivative, method for producing same, and pharmaceutical composition comprising same as effective component” (VORONOI INC., priority 2019, dated 2024).

The target in the test is T1, Ba/F3 cell EGFR Exon20 ins NPH (Homo sapiens, UniProt P00533, INS773NPH).
T1 construct: expressed in transfected cells; host or cells: Ba/F3
The test is described as follows: Ba/F3 cell proliferation suppression, EGFR Exon20 ins NPH. Type of test: cell-based. The note with it: GI50 class; Ba/F3 cell line with NPH inserted at Exon20 of EGFR; 72 hours. A digest of the protocol:
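Cells (3000–5000/well) plated 24 h before compound, 12-point 3-fold dilutions at 0.3 nM to 50 um final; Ba/F3 lines grown with 5 ng/ml IL-3. Viability by CellTiter-Glo luminescence after 72 h, growth ratio vs control, GI50 from curves; triplicate.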
With `C=CC(=O)Nc1cc(Nc2cc(N3OCC[C@@H]3Cc3cccc(Cl)c3F)ncn2)c(OC)cc1N1CCC(N2CCN(C3CC3)[C@H](C)C2)CC1` [compound 1019, N-(5-((6-((S)-3-(3-chloro-2-fluorobenzyl)isoxazolidine-2-yl)pyrimidine-4-yl)amino)-2-(4-((R)-4-cyclopropyl-3-methylpiperazine-1-yl)piperidine-1-yl)-4-methoxyphenyl) acrylamide], the “Ba/F3 (NPH) Activity” value is “A (GI50 < 50 nM)”.

Consider `C=CC(=O)Nc1cc(Nc2cc(N3OCC[C@@H]3c3c(F)ccc(F)c3Cl)ncn2)c(OC)cc1N1CCC(N2CCN(C3CC3)CC2)CC1` [compound 933, N-(5-((6-((R)-3-(2-chloro-3,6-difluorophenyl)isoxazolidine-2-yl)pyrimidine-4-yl)amino)-2-(4-(4-cyclopropylpiperazine-1-yl)piperidine-1-yl)-4-methoxyphenyl) acrylamide], for which the “Ba/F3 (NPH) Activity” value is “A (GI50 < 50 nM)”.

Take `C=CC(=O)Nc1cc(Nc2cc(N3OCC[C@@H]3c3ccc(F)c(F)c3)ncn2)c(OC)cc1N1CCC(N2CCC(N(C)C)CC2)CC1` [compound 546, N-(5-((6-((R)-3-(3,4-difluorophenyl)isoxazolidine-2-yl)pyrimidine-4-yl)amino)-2-(4-(dimethylamino)-[1,4'-bipiperidine]-1'-yl)-4-methoxyphenyl) acrylamide]: the “Ba/F3 (NPH) Activity” value is “A (GI50 < 50 nM)”.

In the case of `C=CC(=O)Nc1cc(Nc2cc(N3OCC[C@@H]3c3cccc(Cl)c3)ncn2)c(OC)cc1N1CCN(CC)CC1` [compound 411, N-(5-((6-((R)-3-(3-chlorophenyl)isoxazolidine-2-yl)pyrimidine-4-yl)amino)-2-(4-ethylpiperazine-1-yl)-4-methoxyphenyl) acrylamide], the “Ba/F3 (NPH) Activity” value is reported as “A (GI50 < 50 nM)”.

Regarding `C=CC(=O)Nc1cc(Nc2cc(N3OCC[C@@H]3c3cccc(F)c3Cl)ncn2)c(OC)cc1N1CCC(N2CCN(C(C)C)CC2)CC1` [compound 661, N-(5-((6-((R)-3-(2-chloro-3-fluorophenyl)isoxazolidine-2-yl)pyrimidine-4-yl)amino)-2-(4-(4-isopropylpiperazine-1-yl)piperidine-1-yl)-4-methoxyphenyl) acrylamide], the “Ba/F3 (NPH) Activity” value is “A (GI50 < 50 nM)”.

On to `C=CC(=O)Nc1cc(Nc2cc(N3OCC[C@@H]3c3ccc(F)c(Cl)c3F)ncn2)c(OC)cc1N1C[C@H](C)O[C@@H](C)C1` [compound 658, N-(5-((6-((R)-3-(3-chloro-2,4-difluorophenyl)isoxazolidine-2-yl)pyrimidine-4-yl)amino)-2-((2S,6S)-2,6-dimethylmorpholino)-4-methoxyphenyl) acrylamide], for which the “Ba/F3 (NPH) Activity” value is listed as “B (50 nM ≤ GI50 < 500 nM)”.

Take `C=CC(=O)Nc1cc(Nc2cc(N3OCC[C@@H]3c3ccc(F)cc3F)ncn2)c(OC)cc1N1C[C@H]2C[C@@H]1CN2CC` [compound 385, N-(5-((6-((R)-3-(2,4-difluorophenyl)isoxazolidine-2-yl)pyrimidine-4-yl)amino)-2-((1R,4R)-5-ethyl-2,5-diazabicyclo[2.2.1]heptane-2-yl)-4-methoxyphenyl) acrylamide]: the “Ba/F3 (NPH) Activity” value was “A (GI50 < 50 nM)”.

Turning to `C=CC(=O)Nc1cc(Nc2cc(N3OCC[C@@H]3c3cccc(C)c3F)ncn2)c(OC)cc1N1CCN(C2COC2)CC1` [compound 908, N-(5-((6-((R)-3-(2-fluoro-3-methylphenyl)isoxazolidine-2-yl)pyrimidine-4-yl)amino)-4-methoxy-2-(4-(oxetane-3-yl)piperazine-1-yl)phenyl) acrylamide], the “Ba/F3 (NPH) Activity” value is given as “A (GI50 < 50 nM)”.

With `C=CC(=O)Nc1cc(Nc2cc(N3OCC[C@@H]3c3cccc(Cl)c3C)ncn2)c(OC)cc1N1CC[C@@H](N(C)C)C1` [compound 586, N-(5-((6-((R)-3-(3-chloro-2-methylphenyl)isoxazolidine-2-yl)pyrimidine-4-yl)amino)-2-((R)-3-(dimethylamino)pyrolidine-1-yl)-4-methoxyphenyl) acrylamide], the “Ba/F3 (NPH) Activity” value is recorded as “A (GI50 < 50 nM)”.

Regarding `C=CC(=O)Nc1cc(Nc2cc(N3OCC[C@H]3Cc3ccccn3)ncn2)c(OC)cc1N1CCC(N2CCN(C3CC3)CC2)CC1` [compound 1058, N-(2-(4-(4-cyclopropylpiperazine-1-yl)piperidine-1-yl)-4-methoxy-5-((6-((R)-3-(pyridine-2-ylmethyl)isoxazolidine-2-yl)pyrimidine-4-yl)amino)phenyl)acrylamide], the “Ba/F3 (NPH) Activity” value is reported as “C (500 nM ≤ GI50 < 5000 nM)”.

In the case of `C=CC(=O)Nc1cc(Nc2cc(N3OCC[C@@H]3c3ccc(C)nc3)ncn2)c(OC)cc1N1CCC(N2CCOCC2)CC1` [Example 45, N-(4-methoxy-5-((6-((R)-3-(6-methylpyridine-3-yl)isoxazolidine-2-yl)pyrimidine-4-yl)amino)-2-(4-morpholinopiperidine-1-yl)phenyl) acrylamide], the “Ba/F3 (NPH) Activity” value is given as “B (50 nM ≤ GI50 < 500 nM)”.

`C=CC(=O)Nc1cc(Nc2cc(N3OCC[C@@H]3c3cccc(Cl)c3)ncn2)c(OC)cc1N1CCC(N2CCN(CC)CC2)CC1` [compound 412, N-(5-((6-((R)-3-(3-chlorophenyl)isoxazolidine-2-yl)pyrimidine-4-yl)amino)-2-(4-(4-ethylpiperazine-1-yl)piperidine-1-yl)-4-methoxyphenyl) acrylamide]: the “Ba/F3 (NPH) Activity” value is given as “A (GI50 < 50 nM)”.

As for `C=CC(=O)Nc1cc(Nc2cc(N3OCC[C@@H]3c3cc(F)ccc3F)ncn2)c(OC)cc1N1CCN(C2CC2)C[C@H]1C` [compound 880, N-(2-((R)-4-cyclopropyl-2-methylpiperazine-1-yl)-5-((6-((R)-3-(2,5-difluorophenyl)isoxazolidine-2-yl)pyrimidine-4-yl)amino)-4-methoxyphenyl) acrylamide], the “Ba/F3 (NPH) Activity” value is “A (GI50 < 50 nM)”.

Turning to `C=CC(=O)Nc1cc(Nc2cc(N3OCC[C@@H]3Cc3cccc(Cl)c3C)ncn2)c(OC)cc1N1CCN(C2CC2)CC1` [compound 1026, N-(5-((6-((S)-3-(3-chloro-2-methylbenzyl)isoxazolidine-2-yl)pyrimidine-4-yl)amino)-2-(4-cyclopropylpiperazine-1-yl)-4-methoxyphenyl) acrylamide], the “Ba/F3 (NPH) Activity” value is given as “B (50 nM ≤ GI50 < 500 nM)”.

On to `C=CC(=O)Nc1cc(Nc2cc(N3OCC[C@@H]3Cc3cccc(F)c3C)ncn2)c(OC)cc1N(C)CCN(C)C` [compound 1000, N-(2-((2-(dimethylamino)ethyl) (methyl)amino)-5-((6-((S)-3-(3-fluoro-2-methylbenzyl)isoxazolidine-2-yl)pyrimidine-4-yl)amino)-4-methoxyphenyl) acrylamide], for which the “Ba/F3 (NPH) Activity” value is “A (GI50 < 50 nM)”.

For the compound `C=CC(=O)Nc1cc(Nc2cc(N3OCC[C@@H]3c3ccc(Cl)c(Cl)c3)ncn2)c(OC)cc1N1CCN(C(C)C)CC1` [compound 680, N-(5-((6-((R)-3-(3,4-dichlorophenyl)isoxazolidine-2-yl)pyrimidine-4-yl)amino)-2-(4-isopropylpiperazine-1-yl)-4-methoxyphenyl) acrylamide], the “Ba/F3 (NPH) Activity” value is recorded as “A (GI50 < 50 nM)”.

For the compound `C=CC(=O)Nc1cc(Nc2cc(N3OCC[C@@H]3c3cc(F)cc(F)c3)ncn2)c(OC)cc1N1CCN(C)[C@H](C)C1` [compound 917, N-(5-((6-((R)-3-(3,5-difluorophenyl)isoxazolidine-2-yl)pyrimidine-4-yl)amino)-2-((R)-3,4-dimethylpiperazine-1-yl)-4-methoxyphenyl) acrylamide], the “Ba/F3 (NPH) Activity” value is listed as “A (GI50 < 50 nM)”.

As to `C=CC(=O)Nc1cc(Nc2cc(N3OCC[C@@H]3c3ccc(F)c(F)c3)ncn2)c(OC)cc1N1C2CC1CN(C)C2` [compound 542, N-(5-((6-((R)-3-(3,4-difluorophenyl)isoxazolidine-2-yl)pyrimidine-4-yl)amino)-4-methoxy-2-(3-methyl-3,6-diazabicyclo [3.1.1]heptane-6-yl)phenyl)acrylamide], the “Ba/F3 (NPH) Activity” value is “B (50 nM ≤ GI50 < 500 nM)”.

For `C=CC(=O)Nc1cc(Nc2cc(N3OCC[C@@H]3c3ccc4ccccc4c3)ncn2)c(OC)cc1N1CCC(N2CCN(C3COC3)CC2)CC1` [Example 200, N-(4-methoxy-5-((6-((R)-3-(naphthalene-2-yl)isoxazolidine-2-yl)pyrimidine-4-yl)amino)-2-(4-(4-(oxetane-3-yl)piperazine-1-yl)piperidine-1-yl)phenyl)acrylamide], the “Ba/F3 (NPH) Activity” value is recorded as “B (50 nM ≤ GI50 < 500 nM)”.

Take `C=CC(=O)Nc1cc(Nc2cc(N3OCC[C@@H]3c3ccc(F)c(F)c3)ncn2)c(OC)cc1N1CCC(N2CCN(C3CCC3)CC2)CC1` [Example 186, N-(2-(4-(4-cyclobutylpiperazine-1-yl)piperidine-1-yl)-5-((6-((R)-3-(3,4-difluorophenyl)isoxazolidine-2-yl)pyrimidine-4-yl)amino)-4-methoxyphenyl) acrylamide]: the “Ba/F3 (NPH) Activity” value is “A (GI50 < 50 nM)”.

Take `C=CC(=O)Nc1cc(Nc2cc(N3OCC[C@H]3Cc3cccnc3)ncn2)c(OC)cc1N1CCC(N2C[C@H]3C[C@@H]2CO3)CC1` [compound 990, N-(2-(4-((1R,4R)-2-oxa-5-azabicyclo [2.2.1]heptane-5-yl)piperidine-1-yl)-4-methoxy-5-((6-((R)-3-(pyridine-3-ylmethyl)isoxazolidine-2-yl)pyrimidine-4-yl)amino)phenyl)acrylamide]: the “Ba/F3 (NPH) Activity” value was “B (50 nM ≤ GI50 < 500 nM)”.

Consider `C=CC(=O)Nc1cc(Nc2cc(N3OCC[C@@H]3c3ccc(Cl)c(Cl)c3)ncn2)c(OC)cc1N1C[C@@H]2C[C@H]1CN2C` [compound 684, N-(5-((6-((R)-3-(3,4-dichlorophenyl)isoxazolidine-2-yl)pyrimidine-4-yl)amino)-4-methoxy-2-((1S,4S)-5-methyl-2,5-diazabicyclo[2.2.1]heptane-2-yl)phenyl) acrylamide], for which the “Ba/F3 (NPH) Activity” value is on record as “A (GI50 < 50 nM)”.
